In BindingDB's records for doi:10.3109/14756366.2012.763163 (Atatürk University, 2014):
Counter-ions that a name gives are not always drawn.

biological target: Carbonic anhydrase 2 (Homo sapiens, UniProt P00918); assay: Esterase Activity Assay; conditions: pH 7.4; 25 °C
Protocol: (§1) CA activity was assayed by following the change in absorbance at 348 nm of 4-nitrophenylacetate (NPA) to 4-nitrophenylate ion over a period of 3 min at 25 °C using a spectrophotometer (Shimadzu, UVmini-1240 UV-VIS spectrophotometer) according to the method described by Verpoorte et al.37 The enzymatic reaction contained 1.4mL 0.05M Tris-SO4 buffer (pH 7.4), 1mL 3mM 4-NPA, 0.5mL H2O and 0.1mL enzyme solution (total volume, 3.0 mL). A reference measurement was obtained bypreparing the mixture without the enzyme solution. All measurements were recorded in triplicate.

Ki [µM]	Structure (SMILES)
18.9	COc1ccc(C(NS(C)(=O)=O)c2cc(OC)c(OC)cc2C)cc1OC (centres undefined) [N-((4,5-dimethoxy-2-methylphenyl)(3,4-dimethoxyphenyl)methyl)methane sulfonamide (27)]
73.3	COc1ccc(C(N)c2cccc(OC)c2OC)cc1OC (centres undefined) [(2,3-Dimethoxyphenyl)(3,4-dimethoxyphenyl)methanamine hydrochloride (25)]
9.23	COc1ccc(C(NS(C)(=O)=O)c2cccc(OC)c2OC)cc1OC (centres undefined) [N-((2,3-dimethoxyphenyl)(3,4-dimethoxyphenyl)methyl)methanesulfonamide (28)]
47.6	COc1ccc(C(N)c2cc(OC)c(OC)cc2C)cc1OC (centres undefined) [(4,5-Dimethoxy-2-methylphenyl)(3,4-dimethoxyphenyl)methanamine hydrochloride (24)]
15.6	COc1ccc(C(N)c2ccc(OC)c(OC)c2)cc1OC [bis(3,4-dimethoxyphenyl)methanamine hydrochloride (22)]
18.1	COc1ccc(C(NS(C)(=O)=O)c2ccc(OC)c(OC)c2)cc1OC [N-(bis(3,4-dimethoxyphenyl)methyl)methanesulfonamide (26)]
34.3	COc1ccc(C(N)c2ccc(OC)c(OC)c2)c(OC)c1 (centres undefined) [(2,4-Dimethoxyphenyl)(3,4-dimethoxyphenyl)methanamine hydrochloride (23)]

biological target: Carbonic anhydrase 1 (Homo sapiens, UniProt P00915); assay: Esterase Activity Assay; conditions: pH 7.4; 25 °C
Sequence (P00915 whole entry): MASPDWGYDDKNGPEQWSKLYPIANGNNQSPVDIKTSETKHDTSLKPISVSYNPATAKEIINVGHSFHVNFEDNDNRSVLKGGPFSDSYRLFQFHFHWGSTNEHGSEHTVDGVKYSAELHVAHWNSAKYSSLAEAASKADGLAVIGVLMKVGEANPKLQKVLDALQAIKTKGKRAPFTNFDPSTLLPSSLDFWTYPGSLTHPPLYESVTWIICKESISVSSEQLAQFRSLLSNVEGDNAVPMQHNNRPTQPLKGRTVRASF
Protocol: as §1

Ki [µM]	Structure (SMILES)
48.6	COc1ccc(C(NS(C)(=O)=O)c2cc(OC)c(OC)cc2C)cc1OC (centres undefined) [N-((4,5-dimethoxy-2-methylphenyl)(3,4-dimethoxyphenyl)methyl)methane sulfonamide (27)]
66.9	COc1ccc(C(N)c2cccc(OC)c2OC)cc1OC (centres undefined) [(2,3-Dimethoxyphenyl)(3,4-dimethoxyphenyl)methanamine hydrochloride (25)]
3.68	COc1ccc(C(NS(C)(=O)=O)c2cccc(OC)c2OC)cc1OC (centres undefined) [N-((2,3-dimethoxyphenyl)(3,4-dimethoxyphenyl)methyl)methanesulfonamide (28)]
39.5	COc1ccc(C(N)c2cc(OC)c(OC)cc2C)cc1OC (centres undefined) [(4,5-Dimethoxy-2-methylphenyl)(3,4-dimethoxyphenyl)methanamine hydrochloride (24)]
13.7	COc1ccc(C(N)c2ccc(OC)c(OC)c2)cc1OC [bis(3,4-dimethoxyphenyl)methanamine hydrochloride (22)]
25.6	COc1ccc(C(NS(C)(=O)=O)c2ccc(OC)c(OC)c2)cc1OC [N-(bis(3,4-dimethoxyphenyl)methyl)methanesulfonamide (26)]
36	COc1ccc(C(N)c2ccc(OC)c(OC)c2)c(OC)c1 (centres undefined) [(2,4-Dimethoxyphenyl)(3,4-dimethoxyphenyl)methanamine hydrochloride (23)]
